Laboratory results published in patent US20250367283A1, “MEVALONATE PATHWAY INHIBITOR AS HIGHLY-EFFICIENT VACCINE ADJUVANT” (Tsinghua University, priority 2015, published 2025).

Legend:
anti-OVA IgG = assay: Comparison with existing adjuvants: IgG titer after boost; assay type: in vivo, mice; conditions: 100 μg adjuvant, intramuscular, 7th day after third immunization
[1] = tested on: anti-OVA IgG antibody affinity; assay: Antibody affinity by sodium thiocyanate disruption; assay type: in vivo, mice; conditions: for antibody affinity vs PBS control: IC50 of sodium thiocyanate, after boost
Description: Antibody affinity refers to the strength of an antibody to bind to the epitope of an antigen, which is a very important indicator when evaluating an antibody. It is due to gene mutations of antibody-forming cells themselves and selective activation of antigens for B cell clones. The functional state of the body is the result of long-term evolution and continuous adaptation to the external environment, which is of great significance to the defense of the body and the maintenance of autoimmune monitoring. In an in vitro test, the affinity of an antibody is determined by disrupting the antigen-antibody binding by sodium thiocyanate. The determination of antibody affinity is based on the fact that sodium thiocyanate can disrupt the binding of antigen and antibody, and the stronger the affinity of the antibody, the higher the concentration of sodium thiocyanate is required to dissociate the antigen and antibody. From another aspect if the affinity of the antibody is stronger, the effect of an adjuvant is better.
The OVA protein was diluted to a concentration of 2 μg/ml with a carbonate solution of pH 9.6, coated in a 96-well ELISA plate at 50 μl per well, and left at 4° C. overnight. The ELISA plate was washed five times with PBS containing 0.05% Tween 20, blocked with 1% BSA solution at 200 μl per well, and incubated at room temperature for 2 h. The ELISA plate was washed five times with PBST and the serum with certain dilution was added. Specifically, for the dilutions, the PBS group was not diluted, the simvastatin group was diluted 16-fold, the TH-Z80 group was diluted 16-fold, the TH-Z93 group was diluted 32-fold, the TH-Z145 group was diluted 16-fold, the imiquimod group was diluted 8-fold, the PEI group was diluted 8-fold, the aluminum adjuvant group was diluted 8-fold, the MF59 group was diluted 16-fold, the incomplete Freund's adjuvant group was diluted 32-fold, and the complete Freund's adjuvant group was diluted 64-fold. Before adding sodium thiocyanate, the amount of anti-OVA IgG type antibody in the diluted serum was the same, 50 μl per well, and incubated for 2 h at room temperature. After washing the ELISA plate with PBST for five times, 10 mM, 9.5 mM, 9 mM, 8.5 mM, 8 mM, 7.5 mM, 7 mM, 6.5 mM,6 mM, 5.5 mM, 5 mM, 4.5 mM, 4 mM, 3.5 mM, 3 mM, 2.5 mM, 2 mM, 1.5 mM, and 0.5 mM sodium thiocyanate were added to each well at 50 μl per well, and incubated for 30 min at room temperature. After washing the ELISA plate for five times with PBST, HRP-labeled goat-anti-mouse antibody was added to each well at 50 μl per well and incubated for 45 min at room temperature. The ELISA plate was washed for five times with PBST, and a color developing solution of sodium citrate OPD was added. After 10 min of color development in the dark, sulfuric acid was added to terminate the reaction. According to the readings of ELIASA, the Prism software was used to calculate the IC50 of sodium thiocyanate. The higher the IC50 value, the stronger the antibody affinity produced by the immunization.
In an in vitro test, the affinity of the antibody was determined by disrupting the binding of the antigen to the antibody by NaSCN. The procedure was as follows: a 96-well ELISA plate was coated with 2 μg/ml OVA, and blocked with 2% BSA. […] Absorbance values at OD 490 nm were read. The IC50 values of NaSCN inhibition were calculated. […]

MDA-MB-231 cells = assay: MDA-MB-231 proliferation MTT test; assay type: cell-based, human; conditions: 72 hours
Procedure: • Drug dissolution: […] The prepared bisphosphonate stock solution was diluted with DMEM complete medium. The maximum concentration was 1 mM. The dilution was performed serially in a ratio of 1:3.2 with a total of 11 concentration gradients; a. MDA-MB-231 cells were digested the day before. Centrifugation was performed at 1000 rmp for 3 min. The cells were counted. The cells were seeded into a 96-well plate at 3000 cells/well in a volume of 100 μl per well and cultured for 14-16 h. It should be noted that the cell count should be accurate, and the amount of cells seeded per well should be consistent. The cell suspension can be gently shaken in the intermittence of plating, or a row of cells were plated and the cell suspension was pipetted gently with a pipette. The speed of pipetting into the 96-well plate with a pipette should not be too fast or too slow, in order to avoid uneven distribution of cells in the plate, affecting the experiments; the wells at the fringe of the 96-well plate will evaporate slightly faster and the concentration of the solution will change slightly faster. Under normal situation, the central 60 wells should be selected for stimulation. Also, the pipetted liquid should be prevented from creating bubbles. b. After the cells had adhered, the liquid in the 96-well plate was pipetted out and discarded. […] c. 72 hours after the action of drug, the prepared MTT solution (immediately before use, a certain amount of MTT powder was weighed and dissolved in PBS at 5 mg/ml, under dark, filter with 0.22 filter membrane) was added directly to each well with 20 μl per well and continued to culture for 4 hours; d. The filter paper (which can be replaced by an absorbent paper) was laid, and the plate was inverted gently (be careful to prevent the crystal in the well from dropping). After the liquid in the wells was removed, 150 μl of DMSO was added to dissolve the crystals, and the mixture was shaken thoroughly with a shaker for a period of time just to dissolve the crystals. The absorbance (OD value) of each well was measured at 570 nm with ELIASA. The mean value of blank control was calculated as OD Blank. OD value for each well=OD measured-OD Blank. ODNT mean value was calculated. […] Mean and standard error were then calculated. The mean and standard error of each group of drug concentration (uM) and corresponding drug inhibition rate were fitted by Graph Prism software to obtain the IC50 of the drug.

Row | Molecule | IgG antibody titer after boost vs PBS control (anti-OVA IgG) | antibody affinity vs PBS control [1] | IC50 (MDA-MB-231 cells) [µM] | antibody affinity compared to PBS ([1]; NaSCN IC50, 7 days after boosting)
1 | CCC(C)(C)C(=O)O[C@H]1C[C@@H](C)C=C2C=C[C@H](C)[C@H](CC[C@@H]3C[C@@H](O)CC(=O)O3)[C@H]21 [simvastatin, reference compound] | significantly high titers | significantly high titers and antibody affinities |  | 
2 | CCCCCCCOc1ccc2c(c1)ncn2CC(O)(P(=O)(O)O)P(=O)(O)O [TH-Z152] |  |  | 428 | 
3 | CCCCCCCCCOc1ccc2c(c1)ncn2CC(O)(P(=O)(O)O)P(=O)(O)O [TH-Z153] |  |  | 234 | 
4 | CCCCCCOc1ccc2c(c1)ncn2CC(O)(P(=O)(O)O)P(=O)(O)O [TH-Z80] | significantly high titers | significantly high titers and antibody affinities | 75.5 | significantly increased the affinity
5 | (2-(3-(octyloxy)phenyl)ethane-1,1-diyl)bisphosphonic acid [TH-Z145] | significantly high titers | significantly high titers and antibody affinities |  | 
6 | CCCCCCCCOc1ccc2c(c1)ncn2CC(O)(P(=O)(O)O)P(=O)(O)O [TH-Z81] |  |  | 59.6 | 
7 | CCCCCCOc1ccnc(NC(P(=O)(O)O)P(=O)(O)O)c1 [TH-Z93, (((4-(hexyloxy)pyridin-2-yl)amino)methylene)bisphosphonic acid] | significantly high titers | significantly high titers and antibody affinities |  | 
